pIC50: −log10 of the molar value.
Biological target: PIK3CD (Human) (UniProt O00329)
Assay: Inhibition of PIK3CD Kinase Activity

PIK3CD (Human), sequence (O00329 whole entry, looked up): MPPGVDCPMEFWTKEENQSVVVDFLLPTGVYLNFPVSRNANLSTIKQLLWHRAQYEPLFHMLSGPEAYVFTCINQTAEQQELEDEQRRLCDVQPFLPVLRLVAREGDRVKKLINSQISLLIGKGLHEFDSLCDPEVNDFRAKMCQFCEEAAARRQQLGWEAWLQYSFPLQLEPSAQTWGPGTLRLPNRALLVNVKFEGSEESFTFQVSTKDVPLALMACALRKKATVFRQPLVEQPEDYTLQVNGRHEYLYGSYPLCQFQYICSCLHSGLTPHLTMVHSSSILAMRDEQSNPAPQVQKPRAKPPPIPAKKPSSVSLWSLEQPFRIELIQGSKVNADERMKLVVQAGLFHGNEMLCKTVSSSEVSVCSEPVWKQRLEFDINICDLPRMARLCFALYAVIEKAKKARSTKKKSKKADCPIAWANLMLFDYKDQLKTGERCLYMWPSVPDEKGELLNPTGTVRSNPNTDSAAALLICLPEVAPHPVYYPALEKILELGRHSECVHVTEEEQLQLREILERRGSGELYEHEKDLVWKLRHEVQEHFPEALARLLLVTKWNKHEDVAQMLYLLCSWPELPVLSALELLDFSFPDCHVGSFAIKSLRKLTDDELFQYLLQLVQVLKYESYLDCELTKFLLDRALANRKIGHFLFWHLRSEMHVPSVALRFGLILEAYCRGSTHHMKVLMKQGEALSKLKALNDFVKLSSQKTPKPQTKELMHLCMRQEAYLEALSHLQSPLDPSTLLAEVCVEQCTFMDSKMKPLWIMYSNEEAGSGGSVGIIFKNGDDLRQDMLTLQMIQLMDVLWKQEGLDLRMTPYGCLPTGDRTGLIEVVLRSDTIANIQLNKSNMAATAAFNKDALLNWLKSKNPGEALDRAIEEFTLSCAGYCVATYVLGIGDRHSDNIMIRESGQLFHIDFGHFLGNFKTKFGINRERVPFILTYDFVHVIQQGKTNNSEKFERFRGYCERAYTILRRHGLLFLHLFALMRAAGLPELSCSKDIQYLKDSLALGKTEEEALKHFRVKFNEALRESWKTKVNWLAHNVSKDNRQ

SMILES | pIC50
CCn1c(CN2CCN3CCOC[C@H]3C2)nc2c(N3CCOCC3)nc(-c3cccc4[nH]ccc34)nc21 | > 6.30
CCn1c(CN2CC(=O)NC(C)(C)C2)nc2c(N3CCOCC3)nc(-c3cccc4[nH]ccc34)nc21 | > 6.30
CCn1c(CN2CCN3CCC[C@H]3C2)nc2c(N3CCOCC3)nc(-c3c(F)ccc4[nH]ccc34)nc21 | > 6.30
CCn1c(CN2CCOC(C)(C)C2)nc2c(N3CCOCC3)nc(-c3cccc4[nH]ccc34)nc21 | > 6.30
CCn1c(CN2CCOC(C)(C)C2)nc2c(N3CCOCC3)nc(-c3c(F)ccc4[nH]ccc34)nc21 | > 6.30
Cn1c(CN2CCN(C(C)(C)C(N)=O)CC2)nc2c(N3CCOCC3)nc(-c3cccc4[nH]ccc34)nc21 | > 6.30
CCn1c(CN2CCC3(CC2)CNC(=O)CO3)nc2c(N3CCOCC3)nc(-c3cccc4[nH]ccc34)nc21 | > 6.30
CCn1c(CN2CCC3(CC2)CNC(=O)CO3)nc2c(N3CCOCC3)nc(-c3c(F)ccc4[nH]ccc34)nc21 | > 6.30
CCn1c(CN2CCC(N(C)C)CC2)nc2c(N3CCOCC3)nc(-c3c(F)ccc4[nH]ccc34)nc21 | > 6.30
CCn1c(CN2CCN3CCC[C@H]3C2)nc2c(N3CCOCC3)nc(-c3cccc4[nH]ccc34)nc21 | > 6.30
CCn1c(CN2CCC(N3CCOCC3)CC2)nc2c(N3CCOCC3)nc(-c3c(F)ccc4[nH]ccc34)nc21 | > 6.30
CC(C)(C(N)=O)N1CCN(Cc2nc3c(N4CCOCC4)nc(-c4cccc5[nH]ccc45)nc3[nH]2)CC1 | > 6.30
CCn1c(CN2CCc3ccccc3C2)nc2c(N3CCOCC3)nc(-c3cccc4[nH]ccc34)nc21 | > 6.30
CCn1c(CN2CCC(C)(C(N)=O)CC2)nc2c(N3CCOCC3)nc(-c3c(F)ccc4[nH]ccc34)nc21 | > 6.30
CC(C)(C(N)=O)N1CCN(Cc2nc3c(N4CCOCC4)nc(-c4c(F)ccc5[nH]ccc45)nc3[nH]2)CC1 | > 6.30
CCn1c(CN2CCC(C(N)=O)CC2)nc2c(N3CCOCC3)nc(-c3c(F)ccc4[nH]ccc34)nc21 | > 6.30
CCn1c(CN2CCC(C(=O)O)(N3CCOCC3)CC2)nc2c(N3CCOCC3)nc(-c3c(F)ccc4[nH]ccc34)nc21 | > 6.30
CCn1c(CN2CCN3CCOC[C@H]3C2)nc2c(N3CCOCC3)nc(-c3c(F)ccc4[nH]ccc34)nc21 | > 6.30
CCn1c(CN2CCC(N(C)S(C)(=O)=O)CC2)nc2c(N3CCOCC3)nc(-c3cccc4[nH]ccc34)nc21 | > 6.30
CCn1c(CN2C[C@@H](C)N(CC(N)=O)[C@@H](C)C2)nc2c(N3CCOCC3)nc(-c3cccc4[nH]ccc34)nc21 | > 6.30

SMILES | pIC50
CCn1c(CN2CCC(N(C)S(C)(=O)=O)CC2)nc2c(N3CCOCC3)nc(-c3c(F)ccc4[nH]ccc34)nc21 | > 6.30
CCn1c(CN2CCC3(CCNC3=O)CC2)nc2c(N3CCOCC3)nc(-c3c(F)ccc4[nH]ccc34)nc21 | > 6.30
CCn1c(CN2CC(NC(C)(C)C(N)=O)C2)nc2c(N3CCOCC3)nc(-c3c(F)ccc4[nH]ccc34)nc21 | > 6.30
CCn1c(CN2CCC(N3CCCC3=O)CC2)nc2c(N3CCOCC3)nc(-c3c(F)ccc4[nH]ccc34)nc21 | > 6.30
CCn1c(CN2CCC(N3CCCCC3=O)CC2)nc2c(N3CCOCC3)nc(-c3c(F)ccc4[nH]ccc34)nc21 | > 6.30
CCn1c(CN2CCC(c3cc[nH]n3)CC2)nc2c(N3CCOCC3)nc(-c3cccc4[nH]ccc34)nc21 | > 6.30
CN(C)C1CCN(Cc2nc3c(N4CCOCC4)nc(-c4c(F)ccc5[nH]ccc45)nc3[nH]2)CC1 | > 6.30
CCn1c(CN2CCC(N3CC(F)(F)C3)CC2)nc2c(N3CCOCC3)nc(-c3c(F)ccc4[nH]ccc34)nc21 | > 6.30
CCn1c(CN2CC(N(C)C(C)(C)C(N)=O)C2)nc2c(N3CCOCC3)nc(-c3cccc4[nH]ccc34)nc21 | > 6.30
CCn1c(CN2CCN(C(C)(C)C(N)=O)CC2)nc2c(N3CCOCC3)nc(-c3c(F)ccc4[nH]ccc34)nc21 | > 6.30
CCn1c(CN2CCN(CC(N)=O)[C@@H](C(C)C)C2)nc2c(N3CCOCC3)nc(-c3c(F)ccc4[nH]ccc34)nc21 | > 6.30
CCn1c(CN2CC(N(C)C(C)(C)C(N)=O)C2)nc2c(N3CCOCC3)nc(-c3c(F)ccc4[nH]ccc34)nc21 | > 6.30
CCn1c(CN2CCN(C3CCS(=O)(=O)CC3)CC2)nc2c(N3CCOCC3)nc(-c3cccc4[nH]ccc34)nc21 | > 6.30
CCn1c(CN2CCN(C(C)C)C(=O)C2)nc2c(N3CCOCC3)nc(-c3cccc4[nH]ccc34)nc21 | > 6.30
CCn1c(CN2CCC(C(N)=O)(N3CCOCC3)CC2)nc2c(N3CCOCC3)nc(-c3cccc4[nH]ccc34)nc21 | > 6.30
CCn1c(CN2CCC3(CCNC3=O)CC2)nc2c(N3CCOCC3)nc(-c3cccc4[nH]ccc34)nc21 | > 6.30
CC(C)(C(N)=O)N1CCN(Cc2nc3c(N4CCOCC4)nc(-c4c(F)ccc5[nH]ccc45)nc3n2CCO)CC1 | > 6.30
CCn1c(CN2CC(NC(C)(C)C(N)=O)C2)nc2c(N3CCOCC3)nc(-c3cccc4[nH]ccc34)nc21 | > 6.30
CCn1c(CN2CCC(C(=O)O)CC2)nc2c(N3CCOCC3)nc(-c3c(F)ccc4[nH]ccc34)nc21 | > 6.30
CCn1c(CN2CC(=O)NC(C)(C)C2)nc2c(N3CCOCC3)nc(-c3c(F)ccc4[nH]ccc34)nc21 | > 6.30

The remaining lines, values ahead:

pIC50 | SMILES
> 6.30 | CCn1c(CN2CCC(n3cccn3)CC2)nc2c(N3CCOCC3)nc(-c3cccc4[nH]ccc34)nc21
> 6.30 | CCn1c(CN2CCC(N3CCC3=O)CC2)nc2c(N3CCOCC3)nc(-c3cccc4[nH]ccc34)nc21
> 6.30 | CCn1c(CN2CCC(N3CCOC3=O)CC2)nc2c(N3CCOCC3)nc(-c3cccc4[nH]ccc34)nc21
> 6.30 | CCn1c(CN2CC(N3CCOCC3)C2)nc2c(N3CCOCC3)nc(-c3c(F)ccc4[nH]ccc34)nc21
> 6.30 | CCn1c(CN2CCC(N3CC(F)(F)C3)CC2)nc2c(N3CCOCC3)nc(-c3cccc4[nH]ccc34)nc21
> 6.30 | CCn1c(CN2CCN3C(=O)COC[C@H]3C2)nc2c(N3CCOCC3)nc(-c3c(F)ccc4[nH]ccc34)nc21
> 6.30 | CN(C)C1CCN(Cc2nc3c(N4CCOCC4)nc(-c4cccc5[nH]ccc45)nc3[nH]2)CC1
> 6.30 | CCn1c(CN2CCC(N3CCCCC3=O)CC2)nc2c(N3CCOCC3)nc(-c3cccc4[nH]ccc34)nc21
> 6.30 | CCn1c(CN2CCC(N3CCS(=O)(=O)CC3)CC2)nc2c(N3CCOCC3)nc(-c3c(F)ccc4[nH]ccc34)nc21
> 6.30 | CCn1c(CN2CCC(N3CCOCC3=O)CC2)nc2c(N3CCOCC3)nc(-c3c(F)ccc4[nH]ccc34)nc21
> 6.30 | CCn1c(CN2CCC(N3CCOC3=O)CC2)nc2c(N3CCOCC3)nc(-c3c(F)ccc4[nH]ccc34)nc21
> 6.30 | CCn1c(CN2CCC(N3CC(F)C3)CC2)nc2c(N3CCOCC3)nc(-c3cccc4[nH]ccc34)nc21
> 6.30 | CCn1c(CN2CCC3(CC2)CNC(=O)C3)nc2c(N3CCOCC3)nc(-c3c(F)ccc4[nH]ccc34)nc21
> 6.30 | CCn1c(CN2CCC(N3CC(F)C3)CC2)nc2c(N3CCOCC3)nc(-c3c(F)ccc4[nH]ccc34)nc21
> 6.30 | CCn1c(CN2CCN(C3CCOCC3)CC2)nc2c(N3CCOCC3)nc(-c3c(F)ccc4[nH]ccc34)nc21
> 6.30 | CCn1c(CN2CCC(N(C)C)CC2)nc2c(N3CCOCC3)nc(-c3cccc4[nH]ccc34)nc21
> 6.30 | CCn1c(CN2CCN(CC(F)(F)F)CC2)nc2c(N3CCOCC3)nc(-c3cccc4[nH]ccc34)nc21
> 6.30 | CCn1c(CN2CCN(CC(F)(F)F)CC2)nc2c(N3CCOCC3)nc(-c3c(F)ccc4[nH]ccc34)nc21
> 6.30 | CCn1c(CN2CCC3(CC2)CNC(=O)C3)nc2c(N3CCOCC3)nc(-c3cccc4[nH]ccc34)nc21
> 6.30 | CCn1c(CN2CCC(N3CCOCC3)CC2)nc2c(N3CCOCC3)nc(-c3cccc4[nH]ccc34)nc21

pIC50 | SMILES
> 6.30 | CCn1c(CN2CCN(CC(N)=O)C(C)(C)C2)nc2c(N3CCOCC3)nc(-c3c(F)ccc4[nH]ccc34)nc21
> 6.30 | CCn1c(CN2CCC(N3CCC3)CC2)nc2c(N3CCOCC3)nc(-c3c(F)ccc4[nH]ccc34)nc21
> 6.30 | CCn1c(CN2CC[C@H](NC(C)(C)C(N)=O)C2)nc2c(N3CCOCC3)nc(-c3c(F)ccc4[nH]ccc34)nc21
> 6.30 | CCn1c(CN2CCN(C(C)C)C(=O)C2)nc2c(N3CCOCC3)nc(-c3c(F)ccc4[nH]ccc34)nc21
> 6.30 | CCn1c(CN2C[C@@H](C)N(CC(N)=O)[C@@H](C)C2)nc2c(N3CCOCC3)nc(-c3c(F)ccc4[nH]ccc34)nc21
> 6.30 | CCn1c(CN2CCC(N3CCC3=O)CC2)nc2c(N3CCOCC3)nc(-c3c(F)ccc4[nH]ccc34)nc21
> 6.30 | CCn1c(CN2CCc3ccccc3C2)nc2c(N3CCOCC3)nc(-c3c(F)ccc4[nH]ccc34)nc21
> 6.30 | CCn1c(CN2CC3COCC(C2)N3)nc2c(N3CCOCC3)nc(-c3c(F)ccc4[nH]ccc34)nc21
> 6.30 | CCn1c(CN2CCN(CC(N)=O)C(C)(C)C2)nc2c(N3CCOCC3)nc(-c3cccc4[nH]ccc34)nc21
> 6.30 | CCn1c(CN2CCC(N3CCS(=O)(=O)CC3)CC2)nc2c(N3CCOCC3)nc(-c3cccc4[nH]ccc34)nc21
> 6.30 | CCn1c(CN2CCC(n3cccn3)CC2)nc2c(N3CCOCC3)nc(-c3c(F)ccc4[nH]ccc34)nc21
> 6.30 | c1cc(-c2nc(N3CCOCC3)c3nc(CN4CCN5CCOC[C@H]5C4)[nH]c3n2)c2cc[nH]c2c1
> 6.30 | CCn1c(CN2CC(N3CCOCC3)C2)nc2c(N3CCOCC3)nc(-c3cccc4[nH]ccc34)nc21
> 6.30 | CCn1c(CN2CCN(C3CCOCC3)CC2)nc2c(N3CCOCC3)nc(-c3cccc4[nH]ccc34)nc21
> 6.30 | CCn1c(CN2CCN(C(C)(C)C(N)=O)CC2)nc2c(N3CCOCC3)nc(-c3cccc4[nH]ccc34)nc21
> 6.30 | CCn1c(CN2CCN(CC(N)=O)[C@@H](C(C)C)C2)nc2c(N3CCOCC3)nc(-c3cccc4[nH]ccc34)nc21
> 6.30 | Cn1c(CN2CCN(C(C)(C)C(N)=O)CC2)nc2c(N3CCOCC3)nc(-c3c(F)ccc4[nH]ccc34)nc21
> 6.30 | CCn1c(CN2CCN(C3CCS(=O)(=O)CC3)CC2)nc2c(N3CCOCC3)nc(-c3c(F)ccc4[nH]ccc34)nc21
> 6.30 | CCn1c(CN2CCC(c3cc[nH]n3)CC2)nc2c(N3CCOCC3)nc(-c3c(F)ccc4[nH]ccc34)nc21
> 6.30 | CCn1c(CN2CCC(N3CCCC3=O)CC2)nc2c(N3CCOCC3)nc(-c3cccc4[nH]ccc34)nc21

From the Kinase Knowledgebase extract (Sharma et al. 2016)
